In publication PMC4648050, “Discovery of Inhibitors of Trypanosoma brucei by Phenotypic Screening of a Focused Protein Kinase Library” (Chemmedchem, 2015):

How the values were obtained:
Type in all cases: biochemical, human/mammalian
Conditions in all cases: compound at 10 μM, read-out: % of activity respect of the control
p38g MAPK = biological target: T1, p38g MAPK (Homo sapiens, UniProt P53778); assay: Kinase panel: p38g MAPK
T1 sequence (P53778 1-367): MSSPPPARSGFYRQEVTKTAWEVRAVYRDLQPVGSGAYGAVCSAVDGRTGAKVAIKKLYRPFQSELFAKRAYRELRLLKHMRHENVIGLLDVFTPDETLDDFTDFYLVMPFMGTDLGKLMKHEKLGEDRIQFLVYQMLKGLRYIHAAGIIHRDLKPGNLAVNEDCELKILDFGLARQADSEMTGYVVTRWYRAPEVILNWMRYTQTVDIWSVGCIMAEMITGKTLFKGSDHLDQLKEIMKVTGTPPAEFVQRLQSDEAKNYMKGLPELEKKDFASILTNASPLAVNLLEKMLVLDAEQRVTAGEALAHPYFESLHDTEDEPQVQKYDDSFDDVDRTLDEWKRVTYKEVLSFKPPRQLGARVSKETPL
Experimental: (§1) The DDU kinase-focused compound set contains lead-like scaffolds that are designed to target protein kinases; they have kinase hinge binding motifs. Four of the 1H-imidazopyrazinones were screened against a human/mammalian kinase panel at the University of Dundee (http://www.kinase-screen.mrc.ac.uk) at a concentration of 10 μM. At the time of testing the panel contained 79 mammalian kinases selected to provide a broad coverage of the mammalian kinome (∼500 kinases in the human genome).[3] None of the compounds were active against any of the kinases at 10 μM.

PDK1 = biological target: T2, PDK1 (Homo sapiens, UniProt O15530); assay: Kinase panel: PDK1
T2 sequence (O15530 1-556): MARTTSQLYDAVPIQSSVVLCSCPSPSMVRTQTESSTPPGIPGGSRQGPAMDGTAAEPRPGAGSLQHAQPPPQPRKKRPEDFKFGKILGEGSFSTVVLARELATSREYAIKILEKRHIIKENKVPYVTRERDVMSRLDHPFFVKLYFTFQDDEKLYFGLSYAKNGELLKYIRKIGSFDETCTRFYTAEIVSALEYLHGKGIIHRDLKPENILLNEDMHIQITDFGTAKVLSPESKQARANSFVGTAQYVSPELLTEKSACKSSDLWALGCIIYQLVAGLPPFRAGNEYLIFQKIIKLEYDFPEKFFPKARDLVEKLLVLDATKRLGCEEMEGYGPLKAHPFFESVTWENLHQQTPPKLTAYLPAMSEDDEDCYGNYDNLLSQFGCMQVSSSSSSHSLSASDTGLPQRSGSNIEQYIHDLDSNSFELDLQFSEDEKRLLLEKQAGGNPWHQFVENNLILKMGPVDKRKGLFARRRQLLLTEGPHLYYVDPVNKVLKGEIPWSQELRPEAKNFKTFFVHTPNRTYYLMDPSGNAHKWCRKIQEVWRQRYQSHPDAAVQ
Experimental: as §1

DYRK3 = biological target: T3, DYRK3 (Homo sapiens, UniProt O43781); assay: Kinase panel: DYRK3
T3 sequence (O43781 1-588): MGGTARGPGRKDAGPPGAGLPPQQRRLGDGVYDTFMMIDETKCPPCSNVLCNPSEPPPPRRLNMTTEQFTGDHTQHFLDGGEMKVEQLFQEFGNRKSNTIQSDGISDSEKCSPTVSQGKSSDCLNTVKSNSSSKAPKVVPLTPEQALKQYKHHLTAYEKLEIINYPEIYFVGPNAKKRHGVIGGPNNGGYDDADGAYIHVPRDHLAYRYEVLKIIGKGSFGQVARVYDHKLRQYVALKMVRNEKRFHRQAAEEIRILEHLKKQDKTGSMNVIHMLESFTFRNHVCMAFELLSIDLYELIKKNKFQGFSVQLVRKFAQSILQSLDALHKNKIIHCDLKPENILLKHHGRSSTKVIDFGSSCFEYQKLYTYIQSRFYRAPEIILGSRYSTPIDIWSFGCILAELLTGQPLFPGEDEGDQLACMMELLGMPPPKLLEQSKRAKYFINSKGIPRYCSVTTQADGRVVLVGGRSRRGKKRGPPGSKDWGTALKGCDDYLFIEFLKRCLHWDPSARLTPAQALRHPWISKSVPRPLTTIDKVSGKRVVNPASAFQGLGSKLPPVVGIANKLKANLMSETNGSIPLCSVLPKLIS
Experimental: as §1

PIM1 = PIM1 (Homo sapiens, UniProt P11309); assay: Kinase panel: PIM1
Experimental: as §1

MST2 = biological target: T4, MST2 (Homo sapiens, UniProt Q13188); assay: Kinase panel: MST2
T4 sequence (Q13188 1-491): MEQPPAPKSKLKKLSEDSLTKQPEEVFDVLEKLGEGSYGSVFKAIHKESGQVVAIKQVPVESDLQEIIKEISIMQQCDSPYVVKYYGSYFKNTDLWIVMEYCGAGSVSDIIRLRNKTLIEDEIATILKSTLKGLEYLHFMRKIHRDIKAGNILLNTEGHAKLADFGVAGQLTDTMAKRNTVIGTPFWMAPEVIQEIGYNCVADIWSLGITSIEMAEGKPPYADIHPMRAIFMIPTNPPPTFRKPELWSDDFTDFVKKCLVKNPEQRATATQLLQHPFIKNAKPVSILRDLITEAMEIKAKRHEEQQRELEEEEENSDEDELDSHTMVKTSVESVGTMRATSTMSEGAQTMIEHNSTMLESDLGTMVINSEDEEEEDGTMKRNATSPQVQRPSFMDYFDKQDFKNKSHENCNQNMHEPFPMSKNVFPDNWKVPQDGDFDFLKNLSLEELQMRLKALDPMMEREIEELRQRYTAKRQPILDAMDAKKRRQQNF
Experimental: as §1

Lck = Lck (Homo sapiens, UniProt P06239); assay: Kinase panel: Lck
Experimental: as §1

SYK = SYK (Homo sapiens, UniProt P43405); assay: Kinase panel: SYK
Experimental: as §1

PLK1 (Okadaic Acid) = PLK1 (Okadaic Acid) (Homo sapiens, UniProt P53350); assay: Kinase panel: PLK1 (Okadaic Acid)
Experimental: as §1

Chain of PIM1 (P11309 whole entry): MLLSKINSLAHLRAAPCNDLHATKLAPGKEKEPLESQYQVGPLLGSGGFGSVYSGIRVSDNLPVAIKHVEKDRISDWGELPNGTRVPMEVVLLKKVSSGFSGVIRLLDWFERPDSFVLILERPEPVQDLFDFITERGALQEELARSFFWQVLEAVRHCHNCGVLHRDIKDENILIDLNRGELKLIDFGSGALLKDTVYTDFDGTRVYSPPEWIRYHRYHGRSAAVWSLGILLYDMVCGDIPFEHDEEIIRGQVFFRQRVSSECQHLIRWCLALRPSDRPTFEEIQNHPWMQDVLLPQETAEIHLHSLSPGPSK
Chain of PLK1 (Okadaic Acid) (P53350 whole entry): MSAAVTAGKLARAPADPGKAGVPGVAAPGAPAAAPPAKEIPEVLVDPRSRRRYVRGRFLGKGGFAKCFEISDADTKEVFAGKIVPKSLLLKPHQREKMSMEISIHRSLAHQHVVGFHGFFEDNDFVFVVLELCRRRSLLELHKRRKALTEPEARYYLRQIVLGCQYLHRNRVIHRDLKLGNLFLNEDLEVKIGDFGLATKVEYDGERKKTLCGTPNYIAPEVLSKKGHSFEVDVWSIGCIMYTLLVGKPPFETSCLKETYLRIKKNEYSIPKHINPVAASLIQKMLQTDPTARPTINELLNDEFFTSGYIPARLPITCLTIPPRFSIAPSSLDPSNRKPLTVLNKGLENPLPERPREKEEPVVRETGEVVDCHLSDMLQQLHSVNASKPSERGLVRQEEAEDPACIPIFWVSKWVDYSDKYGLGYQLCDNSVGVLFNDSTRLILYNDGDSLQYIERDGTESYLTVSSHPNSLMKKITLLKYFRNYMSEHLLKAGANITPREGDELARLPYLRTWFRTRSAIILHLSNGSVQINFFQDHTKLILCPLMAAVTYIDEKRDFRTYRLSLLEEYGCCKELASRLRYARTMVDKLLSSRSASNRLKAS
Chain of Lck (P06239 whole entry): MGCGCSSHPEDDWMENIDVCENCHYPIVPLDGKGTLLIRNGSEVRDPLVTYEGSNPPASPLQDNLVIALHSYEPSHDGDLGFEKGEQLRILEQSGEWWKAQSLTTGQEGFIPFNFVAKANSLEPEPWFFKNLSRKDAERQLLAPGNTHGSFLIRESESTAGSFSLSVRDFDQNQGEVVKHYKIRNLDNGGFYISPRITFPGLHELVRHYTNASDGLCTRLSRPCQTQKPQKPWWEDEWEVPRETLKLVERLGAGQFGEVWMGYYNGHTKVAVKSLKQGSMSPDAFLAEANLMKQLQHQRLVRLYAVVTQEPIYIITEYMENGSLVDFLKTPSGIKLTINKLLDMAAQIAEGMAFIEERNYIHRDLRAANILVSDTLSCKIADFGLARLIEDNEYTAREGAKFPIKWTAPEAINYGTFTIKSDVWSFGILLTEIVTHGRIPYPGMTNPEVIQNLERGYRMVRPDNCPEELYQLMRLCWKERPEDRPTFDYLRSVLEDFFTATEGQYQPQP

| Structure (SMILES) | remaining activity at 10 µM (p38g MAPK) [%] | remaining activity at 10 µM (PDK1) [%] | remaining activity at 10 µM (DYRK3) [%] | remaining activity at 10 µM (PIM1) [%] | remaining activity at 10 µM (MST2) [%] | remaining activity at 10 µM (Lck) [%] | remaining activity at 10 µM (SYK) [%] | remaining activity at 10 µM (PLK1 (Okadaic Acid)) [%] |
| --- | --- | --- | --- | --- | --- | --- | --- | --- |
| C[C@H](c1ccccc1)n1c(=O)[nH]c2ncc(-c3ccccc3)nc21 [Compound 14, (R)-6-Phenyl-1-(1-phenylethyl)-1H-imidazo[4,5-b]pyrazin-2(3H)-one] | 91 | 91 | 100 | 72 | 78 | 89 | 84 | – |
| CC(c1ccccc1)n1c(=O)[nH]c2ncc(-c3ccc(F)cc3)nc21 (stereo not shown) [Compound 1] | 98 | 99 | 109 | 80 | 86 | 90 | 97 | 96 |
| O=c1[nH]c2ncc(-c3ccc(F)cc3)nc2n1CC1CC1 [Compound 10] | 94 | 96 | 108 | 79 | 92 | 99 | 98 | 109 |
| O=c1[nH]c2ncc(-c3ccc(F)cc3)nc2n1C1CCCCC1 [Compound 12, 1-Cyclohexyl-6-(4-fluorophenyl)-1H-imidazo[4,5-b]pyrazin-2(3H)-one] | 98 | 98 | 99 | 82 | 94 | 105 | 100 | 96 |
